Key:
[1] = tested on: Bacillus subtillus ATCC 8473; experiment: Biocidal efficacy against aerobic bacteria, log reduction after 1 hour at 37° C.; type: cell-based; details: for Concentration required to achieve 3 log bacterial reduction in 1 hour, used in combination: active weight ratio 1:6; for Concentration required to achieve 3 log bacterial reduction in 1 hour, used alone: ppm active
Description: (§1) The synergy indexes reported in the following examples are calculated using the following equation:
(§2) Synergy Index=Ca/CA+Cb/CB
(§3) A synergy index (SI) of 1 indicates additivity, a synergy index of less than 1 indicates synergy, and a synergy index greater than 1 indicates antagonism.
(§4) Various methods known to those skilled in the art can be used for evaluating biocidal efficacy. In some of the examples below, a serial dilution technique is used, which determines viable bacteria remaining after a treatment regimen. The method is based or adapted (e.g., for high temperature testing or for the presence of sulfide) from the methodology described in inventor's pending international application PCT/US08/075755, filed Sep. 10, 2008, which is incorporated herein by reference.
(§5) A sterile NaCl solution (0.85%) is contaminated with bacterial inoculums at final bacterial concentration of approximately 10^6 CFU/ml. Then, biocide solution (single or in combination) is added into the bacterial suspension at various concentrations and immediately mixed well. After the mixtures are incubated at 37° C. for 1 hour, the viable bacteria left in the solution are determined. Bacterial log reduction is then calculated.

[2] = tested on: Enterobacter aerogenes ATCC 13048; experiment: as above; type: cell-based; details: for Concentration required to achieve 3 log bacterial reduction in 1 hour, used in combination: active weight ratio 1:6; for Concentration required to achieve 3 log bacterial reduction in 1 hour, used alone: ppm active
Description: as §1, §2, §3, §4, §5

[3] = tested on: Escherichia coli ATCC 11229; experiment: as above; type: cell-based; details: for Concentration required to achieve 3 log bacterial reduction in 1 hour, used in combination: active weight ratio 1:6; for Concentration required to achieve 3 log bacterial reduction in 1 hour, used alone: ppm active
Description: as §1, §2, §3, §4, §5

[4] = tested on: Klebsiella pneumoniae ATCC 8308; experiment: as above; type: cell-based; details: for Concentration required to achieve 3 log bacterial reduction in 1 hour, used in combination: active weight ratio 1:6; for Concentration required to achieve 3 log bacterial reduction in 1 hour, used alone: ppm active
Description: as §1, §2, §3, §4, §5

[5] = tested on: Pseudomonas aeruginosa ATCC 10145; experiment: as above; type: cell-based; details: for Concentration required to achieve 3 log bacterial reduction in 1 hour, used in combination: active weight ratio 1:6; for Concentration required to achieve 3 log bacterial reduction in 1 hour, used alone: ppm active
Description: as §1, §2, §3, §4, §5

[6] = tested on: Pseudomonas putida ATCC 49128; experiment: as above; type: cell-based; details: for Concentration required to achieve 3 log bacterial reduction in 1 hour, used in combination: active weight ratio 1:6; for Concentration required to achieve 3 log bacterial reduction in 1 hour, used alone: ppm active
Description: as §1, §2, §3, §4, §5

[7] = tested on: Staphylococcus aureus ATCC 6538; experiment: as above; type: cell-based; details: for Concentration required to achieve 3 log bacterial reduction in 1 hour, used in combination: active weight ratio 1:6; for Concentration required to achieve 3 log bacterial reduction in 1 hour, used alone: ppm active
Description: as §1, §2, §3, §4, §5

[8] = tested on: oil field isolated anaerobic SRB consortium; experiment: Biocidal efficacy against anaerobic SRB at 40° C., serial dilution method; type: cell-based, sulfate-reducing bacteria (SRB); details: for Concentration required for complete bacterial kill in 1 hour, used alone / Concentration required for 3 log bacterial kill in 2 hours, used alone: ppm active; for Concentration required for complete bacterial kill in 1 hour, used alone: 40° C.; for Concentration required for 3 log bacterial kill in 2 hours, used in combination: concentration of the labelled component
Description: as §1, §2, §3, §4
Inside an anaerobic chamber (Bactron III), a deaerated sterile salt solution (3.1183 g of NaCl, 1.3082 mg of NaHCO3, 47.70 mg of KCl, 72.00 mg of CaCl2, 54.49 mg of MgSO4, 172.28 mg of Na2SO4, 43.92 mg of Na2CO3 in 1 L water) is contaminated with an oil field isolated anaerobic SRB consortium at final bacterial concentrations of about 10^7 CFU/mL. […] […] Bacterial log reduction is then calculated.

[9] = concentration of the labelled component in glutaraldehyde + 4,4-dimethyl-oxazolidine combination
[10] = concentration of the labelled component in glutaraldehyde + 7-ethyl-bicyclooxazolidine combination

Compound	Concentration required to achieve 3 log bacterial reduction in 1 hour, used in combination [1, 9]	Concentration required to achieve 3 log bacterial reduction in 1 hour, used alone [1]	Concentration required to achieve 3 log bacterial reduction in 1 hour, used in combination [2, 9]	Concentration required to achieve 3 log bacterial reduction in 1 hour, used alone [2]	Concentration required to achieve 3 log bacterial reduction in 1 hour, used in combination [3, 9]	Concentration required to achieve 3 log bacterial reduction in 1 hour, used alone [3]	Concentration required to achieve 3 log bacterial reduction in 1 hour, used in combination [4, 9]	Concentration required to achieve 3 log bacterial reduction in 1 hour, used alone [4]	Concentration required to achieve 3 log bacterial reduction in 1 hour, used in combination [5, 9]	Concentration required to achieve 3 log bacterial reduction in 1 hour, used alone [5]	Concentration required to achieve 3 log bacterial reduction in 1 hour, used in combination [6, 9]	Concentration required to achieve 3 log bacterial reduction in 1 hour, used alone [6]	Concentration required to achieve 3 log bacterial reduction in 1 hour, used in combination [7, 9]	Concentration required to achieve 3 log bacterial reduction in 1 hour, used alone [7]	Concentration required for complete bacterial kill in 1 hour, used alone [8]	Concentration required to achieve 3 log bacterial reduction in 1 hour, used in combination [1, 10]	Concentration required to achieve 3 log bacterial reduction in 1 hour, used in combination [2, 10]	Concentration required to achieve 3 log bacterial reduction in 1 hour, used in combination [3, 10]	Concentration required to achieve 3 log bacterial reduction in 1 hour, used in combination [4, 10]	Concentration required to achieve 3 log bacterial reduction in 1 hour, used in combination [5, 10]	also measured
CC1(C)COCN1 [4,4-dimethyl-oxazolidine]	111.3 ppm	296.6 ppm	111.3 ppm	296.6 ppm	111.3 ppm	197.8 ppm	74.2 ppm	197.8 ppm	111.3 ppm	296.6 ppm	111.3 ppm	296.6 ppm	111.3 ppm	296.6 ppm	>1600.0 ppm	–	–	–	–	–	–
CCC12COCN1COC2 [7-ethyl-bicyclooxazolidine, 5-ethyl-1-aza-3,7-dioxabicyclo[3.3.0]octane]	–	296.6 ppm	–	296.6 ppm	–	296.6 ppm	–	197.8 ppm	–	296.6 ppm	–	296.6 ppm	–	296.6 ppm	–	74.2 ppm	111.3 ppm	74.2 ppm	74.2 ppm	111.3 ppm	Concentration required to achieve 3 log bacterial reduction in 1 hour, used in combination [6, 10]: 111.3 ppm; Concentration required to achieve 3 log bacterial reduction in 1 hour, used in combination [7, 10]: 111.3 ppm; Concentration required for 3 log bacterial kill in 2 hours, used in combination ([8]; glutaraldehyde:7-ethyl-bicyclooxazolidine weight ratio 1:1): 5.9 ppm; Concentration required for 3 log bacterial kill in 2 hours, used in combination ([8]; glutaraldehyde:7-ethyl-bicyclooxazolidine weight ratio 1:2): 11.9 ppm; Concentration required for 3 log bacterial kill in 2 hours, used in combination ([8]; glutaraldehyde:7-ethyl-bicyclooxazolidine weight ratio 1:5): 29.6 ppm; Concentration required for 3 log bacterial kill in 2 hours, used in combination ([8]; glutaraldehyde:7-ethyl-bicyclooxazolidine weight ratio 1:10): 39.5 ppm; Concentration required for 3 log bacterial kill in 2 hours, used in combination ([8]; glutaraldehyde:7-ethyl-bicyclooxazolidine weight ratio 1:20): 52.7 ppm; Concentration required for 3 log bacterial kill in 2 hours, used in combination ([8]; glutaraldehyde:7-ethyl-bicyclooxazolidine weight ratio 2:1): 4.4 ppm; Concentration required for 3 log bacterial kill in 2 hours, used in combination ([8]; glutaraldehyde:7-ethyl-bicyclooxazolidine weight ratio 5:1): 1.2 ppm; Concentration required for 3 log bacterial kill in 2 hours, used in combination ([8]; glutaraldehyde:7-ethyl-bicyclooxazolidine weight ratio 10:1): 0.6 ppm; Concentration required for 3 log bacterial kill in 2 hours, used in combination ([8]; glutaraldehyde:7-ethyl-bicyclooxazolidine weight ratio 20:1): 0.3 ppm; Concentration required for 3 log bacterial kill in 2 hours, used alone [8]: >2025 ppm
O=CCCCC=O [Glutaraldehyde]	18.6 ppm	44.5 ppm	18.6 ppm	44.5 ppm	18.6 ppm	44.5 ppm	12.4 ppm	44.5 ppm	18.6 ppm	44.5 ppm	18.6 ppm	44.5 ppm	18.6 ppm	44.5 ppm	26.3 ppm	12.4 ppm	18.6 ppm	12.4 ppm	12.4 ppm	18.6 ppm	Concentration required to achieve 3 log bacterial reduction in 1 hour, used in combination [6, 10]: 18.6 ppm; Concentration required to achieve 3 log bacterial reduction in 1 hour, used in combination [7, 10]: 18.6 ppm; Concentration required for 3 log bacterial kill in 2 hours, used alone [8]: 8.9 ppm
